Laboratory results: PMC4511415, “Inhibition of ANO1/TMEM16A Chloride Channel by Idebenone and Its Cytotoxicity to Cancer Cell Lines” (PLoS ONE, 2015)

Target: T1, ANO1 (anoctamin 1, TMEM16A) (Homo sapiens, UniProt Q5XXA6)
T1 construct: human ANO1(abc)
T1 sequence (Q5XXA6 1-986): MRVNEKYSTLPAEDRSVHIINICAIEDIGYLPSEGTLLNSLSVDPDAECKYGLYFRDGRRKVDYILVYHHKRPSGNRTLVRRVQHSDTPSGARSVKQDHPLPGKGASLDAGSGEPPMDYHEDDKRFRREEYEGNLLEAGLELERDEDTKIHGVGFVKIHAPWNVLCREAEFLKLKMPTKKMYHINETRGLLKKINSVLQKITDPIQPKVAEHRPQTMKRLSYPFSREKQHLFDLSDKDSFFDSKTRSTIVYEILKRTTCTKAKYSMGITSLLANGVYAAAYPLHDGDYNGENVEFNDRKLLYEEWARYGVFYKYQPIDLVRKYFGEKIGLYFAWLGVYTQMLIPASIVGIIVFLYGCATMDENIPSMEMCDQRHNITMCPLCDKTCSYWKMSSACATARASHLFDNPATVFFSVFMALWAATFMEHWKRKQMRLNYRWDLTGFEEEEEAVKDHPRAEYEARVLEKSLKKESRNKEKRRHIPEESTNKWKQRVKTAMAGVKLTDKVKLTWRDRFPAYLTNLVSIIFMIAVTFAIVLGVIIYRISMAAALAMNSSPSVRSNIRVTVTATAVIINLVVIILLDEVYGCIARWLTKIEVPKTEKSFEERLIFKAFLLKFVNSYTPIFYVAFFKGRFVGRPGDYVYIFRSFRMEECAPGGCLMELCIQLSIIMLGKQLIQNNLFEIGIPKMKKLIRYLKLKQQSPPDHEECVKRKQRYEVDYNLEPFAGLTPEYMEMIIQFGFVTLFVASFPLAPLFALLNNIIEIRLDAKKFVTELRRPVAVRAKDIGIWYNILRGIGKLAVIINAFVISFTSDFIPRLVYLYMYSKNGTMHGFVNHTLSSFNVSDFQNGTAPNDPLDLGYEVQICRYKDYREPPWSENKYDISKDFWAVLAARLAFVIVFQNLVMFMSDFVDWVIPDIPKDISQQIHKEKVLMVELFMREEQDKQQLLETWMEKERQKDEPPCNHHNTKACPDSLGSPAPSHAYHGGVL
Experiment: apical membrane current (Ussing chamber) in FRT-ANO1 cells; whole-cell patch clamp; YFP iodide influx
Assay type: cell-based

IC50: 9.2 µM
Structure (SMILES): COC1=C(OC)C(=O)C(CCCCCCCCCCO)=C(C)C1=O [idebenone, 2,3-dimethoxy-5-methyl-6-(10-hydroxydecyl)-21,4-benzoquinone]
